This is an account of results in paper PMC2574930 (Cancer, 2008).

The test system of one test is NCI-H727 cells. The test can be described thus: MTT proliferation assay, NCI-H727. The class given is cell-based, human. The note with it: 72 hours incubation, drug applied every 24 hrs, 10^−10 to 10^−6. For orientation: Tetrazolium assays rely on reduction of a dye to a coloured formazan, in cell work by metabolically active cells.
Test [1] has as its system p21^WAF1/CIP1 transcript in KRJ-I cells. As to the kind of experiment: Real-time PCR p21WAF1/CIP1 transcripts, KRJ-I. The class given is cell-based, human. The following applies: IC50 concentration, 24 hrs, p<0.01 vs. control, Mean±SEM, n=4. On the technique in general: Quantitative PCR measures a nucleic acid by following its amplification.
Test [2] relates to ERK1/2 phosphorylation in KRJ-I cells. As to the kind of experiment: ELISA. The class given is cell-based, human.
In a further test the test system is sst1. The following applies: read-out: sst1 receptor subtype specificity (IC50); human receptor; cited from earlier work.
The test system of a further test is sst5. The following applies: read-out: sst5 receptor subtype specificity (IC50); human receptor; cited from earlier work.
The next test concerns sst4. The following applies: read-out: sst4 receptor subtype specificity (IC50); human receptor; cited from earlier work.
For the next test, the system named is sst2. The following applies: read-out: sst2 receptor subtype specificity (IC50); human receptor; cited from earlier work.
For test [3], the system named is p21^WAF1/CIP1 transcript in NCI-H720 cells. The test can be described thus: Real-time PCR p21WAF1/CIP1 transcripts, NCI-H720. The test is classed as cell-based, human.
Test [4] has as its system p21^WAF1/CIP1 transcript in NCI-H727 cells. The test can be described thus: Real-time PCR p21WAF1/CIP1 transcripts, NCI-H727. The test is classed as cell-based, human. The note with it: NCI-H727, 24 hrs.
Test [5] deals with Ki67 transcript in KRJ-I cells. The test can be described thus: Real-time PCR Ki67 transcripts, KRJ-I. The class given is cell-based, human.
Test [6] concerns ERK1/2 phosphorylation in NCI-H727 cells. The test can be described thus: ELISA. The test is classed as cell-based, human. The following applies: NCI-H727, 30 mins. On the technique in general: ELISA stands for enzyme-linked immunosorbent assay.
A further test relates to sst3. The following applies: read-out: sst3 receptor subtype specificity (IC50); human receptor; cited from earlier work.
The subject of test [7] is Ki67 transcript in NCI-H720 cells. As to the kind of experiment: Real-time PCR Ki67 transcripts, NCI-H720. The test is classed as cell-based, human.

A word on the IC50: it is the concentration that gives 50% inhibition.

In the case of `CC(C)[C@@H]1NC(=O)[C@H](CCCCN)NC(=O)[C@@H](Cc2c[nH]c3ccccc23)NC(=O)[C@H](Cc2ccc(O)cc2)NC(=O)[C@@H](NC(=O)[C@H](N)Cc2ccc3ccccc3c2)CSSC[C@@H](C(=O)N[C@H](C(N)=O)[C@@H](C)O)NC1=O` [Lanreotide], the “Effect on NCI-H727 proliferation” value in the test on NCI-H727 cells was “No effect”. For the same compound, the “p21^WAF1/CIP1 transcripts elevated, vs. control” value in test [1] was 175±21%. Also, the “Activation of ERK1/2 signaling, vs. control” value in test [2] (IC50 concentration, 30 mins, p=0.05 vs. control, Mean±SEM, n=4) was found to be 25±8%. Further, the IC50 is > 1000 nM in the test with sst1; 12.7 nM with sst5; > 1000 nM with sst4; 0.75 nM in the test on sst2; 98 nM in the test on sst3. The “p21^WAF1/CIP1 transcript levels increased, vs. control” value in test [3] (NCI-H720, IC50 concentration, 24 hr, p<0.01 vs. control, Mean±SEM, n=4) came out at 140±27%. Besides, the “p21^WAF1/CIP1 transcripts” value in [4] is reported as “not significantly up-regulated”. Moreover, the “Ki67 transcript down regulated, vs. control” value in [5] (IC50 concentration, 24 hrs, p<0.01 vs. control, Mean±SEM, n=4) is on record as 73±12%. The “ERK phosphorylation” value in [6] was “no effect”. For the same compound, in [7] (NCI-H720, IC50 concentration, 24 hr, p<0.01, Mean±SEM, n=4), the “Ki67 transcript levels decreased, vs. unstimulated cells” value was found to be 45±7%.
Consider `COc1cccc(-c2cc(=O)c3ccccc3o2)c1N` [PD98059], for which the “Inhibition of lanreotide-activated ERK1/2 signaling by PD98059” value in test [2] (PD98059 pre-incubated 10 min prior to lanreotide) was “could be inhibited”. In test [3] (NCI-H720, p<0.05 vs. lanreotide alone), the “Reversal of lanreotide-induced p21^WAF1/CIP1 increase by PD98059” value is recorded as “reversible”. The “Inhibition of lanreotide Ki67 down regulation by PD98059” value in [5] (p<0.05 vs. lanreotide alone) is given as “inhibited”. The “Ki67 transcript decrease by lanreotide when inhibited by PD98059” value in test [7] (NCI-H720, lanreotide 24 hr with PD98059, p<0.05 vs. lanreotide alone) worked out at 6±2%.
Consider Somatostatin-14, for which the IC50 was 1.95 nM in the test with sst1; 1.41 nM in the test on sst5; 1.77 nM in the test on sst4; 0.25 nM in the test with sst2; 1.2 nM in the test with sst3.
Consider Somatostatin-28, for which the half-maximal inhibitory concentration (IC50) is 1.86 nM in the test with sst1; 0.4 nM in the test with sst5; 5.4 nM in the test with sst4; 0.31 nM in the test on sst2; 1.3 nM in the test on sst3.
